# Patent US7034036B2, “Inhibitors of ABC drug transporters at the blood-brain barrier” (Pain Therapeutics, Inc., priority 2000, dated 2006)
# “Also recorded” adds a separate entry of the source.
# Tests used:
# [1] = biological target: PGP1a (Homo sapiens, UniProt P08183); assay: Biological activity of exemplary compounds (Activity 1 high affinity site, Activity 2 low affinity site); details: for Activity 2: high capacity, low affinity binding site; for Activity 1: low capacity, high affinity binding site
# Chain of PGP1a (Homo sapiens, UniProt P08183) (P08183 whole entry): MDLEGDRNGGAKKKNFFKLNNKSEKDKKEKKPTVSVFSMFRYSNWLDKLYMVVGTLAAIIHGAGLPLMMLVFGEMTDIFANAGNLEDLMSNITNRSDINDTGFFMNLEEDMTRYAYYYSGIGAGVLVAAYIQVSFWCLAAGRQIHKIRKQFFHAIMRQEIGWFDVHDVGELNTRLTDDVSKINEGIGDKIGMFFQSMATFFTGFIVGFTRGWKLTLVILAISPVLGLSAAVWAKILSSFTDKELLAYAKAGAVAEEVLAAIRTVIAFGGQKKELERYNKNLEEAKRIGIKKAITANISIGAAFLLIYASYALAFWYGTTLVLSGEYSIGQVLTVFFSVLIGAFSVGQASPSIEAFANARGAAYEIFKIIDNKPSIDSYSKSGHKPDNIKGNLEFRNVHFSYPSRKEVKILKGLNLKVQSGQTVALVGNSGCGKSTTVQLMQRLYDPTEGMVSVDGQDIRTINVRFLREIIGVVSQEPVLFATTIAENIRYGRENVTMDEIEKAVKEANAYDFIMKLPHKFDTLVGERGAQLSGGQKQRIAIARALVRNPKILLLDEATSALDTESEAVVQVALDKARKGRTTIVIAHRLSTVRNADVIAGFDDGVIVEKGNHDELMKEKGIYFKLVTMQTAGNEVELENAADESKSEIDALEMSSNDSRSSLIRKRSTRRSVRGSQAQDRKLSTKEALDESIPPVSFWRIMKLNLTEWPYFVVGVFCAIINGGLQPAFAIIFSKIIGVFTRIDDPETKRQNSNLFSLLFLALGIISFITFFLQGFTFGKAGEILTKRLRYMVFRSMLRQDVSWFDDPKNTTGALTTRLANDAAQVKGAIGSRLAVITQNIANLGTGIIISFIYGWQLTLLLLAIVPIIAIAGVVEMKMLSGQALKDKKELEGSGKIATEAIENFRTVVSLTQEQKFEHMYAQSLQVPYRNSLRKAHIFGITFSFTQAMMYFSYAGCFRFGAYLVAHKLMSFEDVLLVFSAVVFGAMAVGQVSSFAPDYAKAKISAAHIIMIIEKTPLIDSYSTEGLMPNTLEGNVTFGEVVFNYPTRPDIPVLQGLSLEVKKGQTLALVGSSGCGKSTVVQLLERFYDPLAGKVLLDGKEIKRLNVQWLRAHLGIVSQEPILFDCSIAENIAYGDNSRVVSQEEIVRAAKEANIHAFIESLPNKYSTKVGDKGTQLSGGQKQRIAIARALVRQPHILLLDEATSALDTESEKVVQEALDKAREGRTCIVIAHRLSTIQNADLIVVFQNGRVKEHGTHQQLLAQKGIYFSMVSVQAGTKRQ
# [2] = tested on: mice; assay: Tolerance to oxycodone in mice, parallel experiments; type: in vivo
# [3] = tested on: PGP1a; assay: Vanadate-sensitive PGP ATPase activity in PGP membranes; type: biochemical; details: for Inhibition of the ATPase associated with PGP1a: semi-quantitative assay
# Protocol: The test substances were incubated in the membranes and supplemented with MgATP, with and without sodium orthovanadate present. Orthovanadate inhibits PGP by trapping MgADP in the nucleotide binding site. Thus, the ATPase activity measured in the presence of orthovanadate represents non-PGP ATPase activity and was subtracted from the activity generated without orthovanadate to yield vanadate-sensitive ATPase activity.
# ATPase assays were conducted in 96-well microtiter plates. A 0.06 ml reaction mixture containing 40 μg PGP membranes, test substance, and 4 mM MgATP, in buffer containing 50 mM Tris-MES, 2 mM EGTA, 50 mM KCl, 2 mM dithiothreitol, and 5 mM sodium azide, plus organic solvent was incubated at 37° C. for 20 minutes. […] Identical reaction mixtures containing 100 μM sodium orthovanadate were assayed in parallel. The reactions were stopped by the addition of 30 μl of 10% SDS+Antifoam A. The incubations were followed with addition of 200 μl of 35 mM Ammonium Molybdate in 15 mM Zinc Acetate:10% Ascorbic Acid (1:4) and incubated for an additional 20 minutes at 37° C. Additionally, 0.06 ml aliquots of potassium phosphate standards prepared in the buffer described above, were incubated in the plates containing the test and control substances, with SDS and detection reagent added. The liberation of inorganic phosphate was detected by its absorbance at 800 nm and quantitated by comparing the absorbance to a phosphate standard curve. The concentration dependence of the PGP was analyzed for evidence of saturation of PGP-ATPase activity, and apparent kinetic parameters were calculated by non-linear regression.
# [4] = biological target: human PGP (Homo sapiens, UniProt P08183); assay: Inhibition of PGP-mediated [3H]-digoxin transport in LLC-PK1 cell monolayers expressing human PGP cDNA (15B-J); details: for % Inhibition of Digoxin Transport: 5 μM [3H]-digoxin, 90 min
# Chain of human PGP (P08183 whole entry): as above
# [5] = tested on: mice; assay: Tail flick anti-nociception, naltrexone given with morphine from day 1 (Groups C, D, combined analysis); type: in vivo; design: Enhancement of Latency (tail flick) / Enhancement of Latency by Naltrexone (tail flick): unit not given here; details: Group 1: morphine 3 mg/kg only
# Protocol: In a third series of experiments, 40 male mice were randomized into 5 groups of eight. All mice were administered single 3 mg/kg morphine daily (b.i.d.), beginning on Day 1.
# In a final series of experiments, 40 female mice were randomized into 5 groups of eight. All mice were administered single 3 mg/kg morphine daily (b.i.d.), beginning on Day 1.
# [6] = tested on: mice; assay: Tail flick anti-nociception, naltrexone begun at day 6 in mice dosed daily with morphine (Groups A, B); type: in vivo; details: for Adaptation to repeated dosing (tail flick latency, words): Group 1, morphine 3 mg/kg daily alone
# Protocol: 40 male mice were randomized into 5 groups of eight. All mice were administered single 3 mg/kg morphine daily (b.i.d.), beginning on Day 1.
# In a second series of experiments, 40 female mice were randomized into 5 groups of eight. All mice were administered single 3 mg/kg morphine daily (b.i.d.), beginning on Day 1.
# 3 mg/kg of morphine was administered as a single bolus dose to each mouse on group 1 on a daily basis. Mice in Group 2 were also administered 3 mg/kg morphine daily.
# [7] = male mice, 0.1 mg/kg oxycodone plus 1 ng/kg naltrexone, 1 ng/kg nalmefene or 1 pg/kg nor-BNI
smiles,measurement,setting,value
"Oc1ccc2c3c1O[C@H]1[C@H](O)CC[C@@]4(O)[C@@H](C2)N(CC2CC2)CC[C@]314 [6-β-Naltrexol, 6-β-naltrexol]",Activity 2,[1],100 µM
same,Activity 1,[1],0.1 nM
"C=C1CC[C@@]2(O)[C@H]3Cc4ccc(O)c5c4[C@@]2(CCN3CC2CC2)[C@H]1O5 [Nalmefene, nalmefene]",Development of tolerance to oxycodone,[2]; [7],did not develop tolerance
same,Activity 2,[1],100 µM
same,Activity 1,[1],0.3 nM
same,Vanadate-sensitive ATPase Activity,[3]; 30 μM,2.3 nmol/mg/min
same,Vanadate-sensitive ATPase Activity,[3]; 100 μM,3.2 nmol/mg/min
same,Inhibition of the ATPase associated with PGP1a,[3],shown to inhibit
same,% Inhibition of Digoxin Transport,[4]; 0.0001 μM test substance,5.2%
same,% Inhibition of Digoxin Transport,[4]; 0.0003 μM test substance,7.2%
same,% Inhibition of Digoxin Transport,[4]; 0.001 μM test substance,2.8%
same,% Inhibition of Digoxin Transport,[4]; 0.003 μM test substance,5.1%
same,% Inhibition of Digoxin Transport,[4]; 0.01 μM test substance,3.9%
same,% Inhibition of Digoxin Transport,[4]; 0.03 μM test substance,−7.2%
same,% Inhibition of Digoxin Transport,[4]; 0.1 μM test substance,−0.3%
same,% Inhibition of Digoxin Transport,[4]; 0.3 μM test substance,−5.6%
same,% Inhibition of Digoxin Transport,[4]; 1 μM test substance,−2.6%
same,Inhibition of digoxin transport,[4]; increasing concentration between 3 and 100 μM,increasingly inhibited
"C=CCN1CC[C@]23c4c5ccc(O)c4O[C@H]2C(=O)CC[C@@]3(O)[C@H]1C5 [Naloxone, naloxone]",Activity 2,[1],30 µM
same,Activity 1,[1],1.0 nM
same,Vanadate-sensitive ATPase Activity,[3]; 1 μM,0.4 nmol/mg/min
same,Vanadate-sensitive ATPase Activity,[3]; 3 μM,1.7 nmol/mg/min
same,Vanadate-sensitive ATPase Activity,[3]; 10 μM,2 nmol/mg/min
same,Vanadate-sensitive ATPase Activity,[3]; 30 μM,1.9 nmol/mg/min
same,Vanadate-sensitive ATPase Activity,[3]; 100 μM,1.8 nmol/mg/min
same,Inhibition of the ATPase associated with PGP1a,[3],shown to inhibit; also recorded: only weakly inhibited
same,Ketoconazole Normalized % Inhibition of Digoxin Transport,"[4]; 0.0001 μM nominal, normalized to 25 μM ketoconazole",6.2%
same,Ketoconazole Normalized % Inhibition of Digoxin Transport,"[4]; 0.0003 μM nominal, normalized to 25 μM ketoconazole",8.4%
same,Ketoconazole Normalized % Inhibition of Digoxin Transport,"[4]; 0.001 μM nominal, normalized to 25 μM ketoconazole",10%
same,Ketoconazole Normalized % Inhibition of Digoxin Transport,"[4]; 0.01 μM nominal, normalized to 25 μM ketoconazole",−4.5%
same,Ketoconazole Normalized % Inhibition of Digoxin Transport,"[4]; 0.03 μM nominal, normalized to 25 μM ketoconazole",5.7%
same,Ketoconazole Normalized % Inhibition of Digoxin Transport,"[4]; 0.1 μM nominal, normalized to 25 μM ketoconazole",−2.7%
same,Ketoconazole Normalized % Inhibition of Digoxin Transport,"[4]; 1 μM nominal, normalized to 25 μM ketoconazole",7.8%
same,Inhibition of digoxin transport,[4]; at the 30 and 100 μM concentrations,exhibited inhibitory behavior
same,Inhibition of digoxin transport,"[4]; concentrations below 30 μM, not concentration-dependent",slightly inhibited
same,Ketoconazole Normalized % Inhibition of Digoxin Transport,[4]; nominal 0.03 μM as printed in the fourth line (measured […]),5.7%
CN1CC[C@]23c4c5ccc(O)c4O[C@H]2[C@@H](O)C=C[C@H]3[C@H]1C5 [morphine],Enhancement of Latency (tail flick),"[5]; Table 15, combined analysis (title prints Female Mice), Day 1",7.4
same,Enhancement of Latency (tail flick),"[5]; Table 15, combined analysis (title prints Female Mice), Day 3",3.0
same,Enhancement of Latency (tail flick),"[5]; Table 15, combined analysis (title prints Female Mice), Day 5",−1.2
same,Enhancement of Latency (tail flick),"[5]; Table 15, combined analysis (title prints Female Mice), Day 8",−3.7
same,Enhancement of Latency (tail flick),"[5]; Table 15, combined analysis (title prints Female Mice), Day 10",−3.3
same,Enhancement of Latency (tail flick),"[5]; female mice, Day 1",5.4
same,Enhancement of Latency (tail flick),"[5]; female mice, Day 3",−0.1
same,Enhancement of Latency (tail flick),"[5]; female mice, Day 5",−4.1
same,Enhancement of Latency (tail flick),"[5]; female mice, Day 7",−5.0
same,Enhancement of Latency (tail flick),"[5]; female mice, Day 10",−3.3
same,Enhancement of Latency (tail flick),"[5]; female mice, Day 11, single bolus 10 μg/kg naltrexone to every mouse",−5.2
same,Enhancement of Latency (tail flick),"[5]; male mice, Day 1",9.3
same,Enhancement of Latency (tail flick),"[5]; male mice, Day 3",6.2
same,Enhancement of Latency (tail flick),"[5]; male mice, Day 5",1.6
same,Enhancement of Latency (tail flick),"[5]; male mice, Day 8",−2.3
same,Enhancement of Latency (tail flick),"[5]; male mice, Day 10",−3.3
same,Enhancement of Latency (tail flick),"[5]; male mice, Day 12, single bolus 10 μg/kg naltrexone to every mouse",−4.3
same,Tolerance,"[6]; 3 mg/kg daily, by Day 5",showed distinct tolerance
same,"Adaptation to repeated dosing (tail flick latency, words)","[6]; female mice, especially from day five onwards",show an adaptation to morphine
same,"Adaptation to repeated dosing (tail flick latency, words)",[6]; male mice,showed adaptation
"Oc1ccc2c3c1O[C@H]1c4[nH]c5c(c4C[C@@]4(O)[C@@H](C2)N(CC2CC2)CC[C@]314)C[C@@]1(O)[C@H]2Cc3ccc(O)c4c3[C@@]1(CCN2CC1CC1)[C@H]5O4 [nor-BNI, nor-binaltorphimine]",Development of tolerance to oxycodone,"[2]; female mice, 1 or 5 mg/kg oxycodone with 1 pg/kg, 1 ng/kg or 1 μg/kg naltrexone or 1 pg/kg nor-BNI",None of the mice developed tolerance
same,Development of tolerance to oxycodone,[2]; [7],did not develop tolerance
